Reference: PubChem BioAssay AID248 (DTP/NCI, 2004)
Several values for one entry are separate records, joined by “and”; a condition that tells them apart may be missing. Equal entries are not always repeated. Toxic doses and inconclusive results are not listed.

Test system: L1210 leukemia ip in BDF1 mice, survival T/C
Assay: NCI In Vivo Anticancer Drug Screen. Data for tumor model L1210 Leukemia (intraperitoneal) in B6D2F1 (BDF1) mice
Conditions: endpoint: mean survival time, higher = longer survival
Procedure, shortened: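 Antitumor effect is assessed in tumor-bearing animals. Survival in the compound arm is compared with a vehicle-dosed control arm and expressed as their quotient.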

[1] = dose: 200.0 mg/kg/injection, schedule: Q01DX009 (ip), vehicle: saline
[2] = dose: 100.0 mg/kg/injection, schedule: Q01DX009 (ip), vehicle: saline with Tween-80
[3] = dose: 100.0 mg/kg/injection, schedule: Q04DX003 (ip), vehicle: saline with Tween-80
[4] = dose: 200.0 mg/kg/injection, schedule: Q01DX009 (ip), vehicle: saline with Tween-80
[5] = dose: 200.0 mg/kg/injection, schedule: Q04DX003 (ip), vehicle: saline with Tween-80
[6] = dose: 400.0 mg/kg/injection, schedule: Q01DX009 (ip), vehicle: saline with Tween-80
[7] = dose: 400.0 mg/kg/injection, schedule: Q04DX003 (ip), vehicle: saline with Tween-80
[8] = dose: 100.0 mg/kg/injection, schedule: Q04DX002 (ip), vehicle: saline with Tween-80
[9] = dose: 200.0 mg/kg/injection, schedule: Q04DX002 (ip), vehicle: saline with Tween-80
[10] = dose: 400.0 mg/kg/injection, schedule: Q04DX002 (ip), vehicle: saline with Tween-80
[11] = dose: 25.0 mg/kg/injection, schedule: Q01DX009 (ip), vehicle: saline with Tween-80
[12] = dose: 50.0 mg/kg/injection, schedule: Q01DX009 (ip), vehicle: saline with Tween-80
[13] = dose: 100.0 mg/kg/injection, schedule: Q01DX009 (ip), vehicle: Klucel (hydroxypropylcellulose) (HPC)
[14] = dose: 100.0 mg/kg/injection, schedule: Q04DX003 (ip), vehicle: Klucel (hydroxypropylcellulose) (HPC)
[15] = dose: 200.0 mg/kg/injection, schedule: Q01DX009 (ip), vehicle: Klucel (hydroxypropylcellulose) (HPC)
[16] = dose: 200.0 mg/kg/injection, schedule: Q04DX003 (ip), vehicle: Klucel (hydroxypropylcellulose) (HPC)
[17] = dose: 400.0 mg/kg/injection, schedule: Q01DX009 (ip), vehicle: Klucel (hydroxypropylcellulose) (HPC)
[18] = dose: 400.0 mg/kg/injection, schedule: Q04DX003 (ip), vehicle: Klucel (hydroxypropylcellulose) (HPC)
[19] = dose: 100.0 mg/kg/injection, schedule: Q04DX003 (ip), vehicle: saline
[20] = dose: 200.0 mg/kg/injection, schedule: Q04DX003 (ip), vehicle: saline
[21] = dose: 400.0 mg/kg/injection, schedule: Q04DX003 (ip), vehicle: saline
[22] = dose: 100.0 mg/kg/injection, schedule: Q01DX001 (ip), vehicle: saline
[23] = dose: 200.0 mg/kg/injection, schedule: Q01DX001 (ip), vehicle: saline
[24] = dose: 400.0 mg/kg/injection, schedule: Q01DX001 (ip), vehicle: saline
[25] = dose: 50.0 mg/kg/injection, schedule: Q01DX009 (ip), vehicle: Klucel (hydroxypropylcellulose) (HPC)

For O=C(NC1OCC(O)C(O)C1O)Oc1ccccc1 (stereo unspecified), the T/C (dose: 100.0 mg/kg/injection, schedule: Q01DX009 (ip), vehicle: saline) was 108 % of control, the T/C (dose: 100.0 mg/kg/injection, schedule: Q04DX003 (ip), vehicle: water) was 97 % of control and the T/C [1] was 97 % of control. The T/C (dose: 200.0 mg/kg/injection, schedule: Q04DX003 (ip), vehicle: water) was 96 % of control, the T/C (dose: 400.0 mg/kg/injection, schedule: Q01DX009 (ip), vehicle: saline) was 101 % of control and the T/C (dose: 400.0 mg/kg/injection, schedule: Q04DX003 (ip), vehicle: water) was 100 % of control.
With O=C(O)c1cc(C(=O)O)cc(S(=O)(=O)F)c1 the T/C [2] was 92 % of control, the T/C [3] was 91 % of control and the T/C [4] was 88 % of control. For the same compound, the T/C [5] was 86 % of control, the T/C [6] was 97 % of control and the T/C [7] was 99 % of control.
NS(=O)(=O)c1ccc(NC(=S)NC(=O)c2ccc(Cl)cc2Cl)cc1 was tested, and the T/C [2] was 89 % of control and 90 % of control, the T/C [8] was 101 % of control and 92 % of control and the T/C [4] was 96 % of control and 89 % of control. The T/C [9] was 97 % of control and 90 % of control, the T/C [6] was 93 % of control and 89 % of control and the T/C [10] was 86 % of control and 92 % of control.
In the case of CN(C)c1nnc([N+](=O)[O-])s1, the T/C (dose: 62.0 mg/kg/injection, schedule: Q04DX003 (ip), vehicle: Klucel (hydroxypropylcellulose) (HPC)) is reported as 93 % of control and the T/C (dose: 123.0 mg/kg/injection, schedule: Q04DX003 (ip), vehicle: Klucel (hydroxypropylcellulose) (HPC)) is reported as 87 % of control.
CC(C)(C)C(O)c1ccccc1 (stereo unspecified) was tested, and the T/C (dose: 25.0 mg/kg/injection, schedule: Q04DX002 (ip), vehicle: saline with Tween-80) was 97 % of control, the T/C (dose: 50.0 mg/kg/injection, schedule: Q04DX002 (ip), vehicle: saline with Tween-80) was 93 % of control and the T/C [8] was 93 % of control and 92 % of control. For the same compound, the T/C [9] was 93 % of control and 95 % of control and the T/C [10] was 95 % of control.
With CC1=NN(c2ccc(S(=O)(=O)O)cc2Cl)C(=O)C1 the T/C [3] was 101 % of control, the T/C [5] was 98 % of control and the T/C [7] was 90 % of control.
For CN(/N=N/c1nc[nH]c1C(N)=O)C(C)(C)C, the T/C (dose: 12.5 mg/kg/injection, schedule: Q01DX009 (ip), vehicle: saline with Tween-80) was 103 % of control, the T/C (dose: 12.5 mg/kg/injection, schedule: Q04DX009 (ip), vehicle: saline with Tween-80) was 98 % of control and the T/C [11] was 93 % of control. The T/C (dose: 25.0 mg/kg/injection, schedule: Q04DX003 (ip), vehicle: Klucel (hydroxypropylcellulose) (HPC)) was 100 % of control, the T/C (dose: 25.0 mg/kg/injection, schedule: Q04DX009 (ip), vehicle: saline with Tween-80) was 103 % of control and the T/C [12] was 101 % of control. The T/C (dose: 50.0 mg/kg/injection, schedule: Q04DX003 (ip), vehicle: Klucel (hydroxypropylcellulose) (HPC)) was 103 % of control, the T/C (dose: 50.0 mg/kg/injection, schedule: Q04DX009 (ip), vehicle: saline with Tween-80) was 103 % of control and the T/C [13] was 97 % of control. The T/C [2] was 103 % of control, the T/C [14] was 102 % of control and the T/C (dose: 100.0 mg/kg/injection, schedule: Q04DX009 (ip), vehicle: saline with Tween-80) was 103 % of control. For the same compound, the T/C [15] was 96 % of control, the T/C [4] was 103 % of control and the T/C [16] was 111 % of control. For the same compound, the T/C (dose: 200.0 mg/kg/injection, schedule: Q04DX009 (ip), vehicle: saline with Tween-80) was 101 % of control, the T/C [17] was 97 % of control and the T/C [6] was 97 % of control. For the same compound, the T/C [18] was 105 % of control and the T/C (dose: 400.0 mg/kg/injection, schedule: Q04DX009 (ip), vehicle: saline with Tween-80) was 101 % of control.
CCCCCCCCCCN=C(N)N/C(N)=N/S(=O)(=O)c1ccc(OCCCC)cc1 was tested, and the T/C (dose: 100.0 mg/kg/injection, schedule: Q04DX002 (ip), vehicle: Klucel (hydroxypropylcellulose) (HPC)) was 103 % of control, the T/C (dose: 200.0 mg/kg/injection, schedule: Q04DX002 (ip), vehicle: Klucel (hydroxypropylcellulose) (HPC)) was 95 % of control and the T/C (dose: 400.0 mg/kg/injection, schedule: Q04DX002 (ip), vehicle: Klucel (hydroxypropylcellulose) (HPC)) was 103 % of control.
CCOC(=O)C(=CN1CCCCCC1)C(=O)OCC was tested, and the T/C [19] was 106 % of control, the T/C [20] was 97 % of control and the T/C [21] was 89 % of control.
With O=NN(CCCl)C(=O)NC(CCC(=O)O)C(=O)O (stereo unspecified) the T/C (dose: 13.0 mg/kg/injection, schedule: Q01DX001 (ip), vehicle: saline with Tween-80) was 123 % of control, the T/C (dose: 67.0 mg/kg/injection, schedule: Q01DX001 (ip), vehicle: saline with Tween-80) was 200 % of control and the T/C (dose: 100.0 mg/kg/injection, schedule: Q01DX001 (ip), vehicle: saline with Tween-80) was 261 % of control. For the same compound, the T/C (dose: 150.0 mg/kg/injection, schedule: Q01DX001 (ip), vehicle: saline with Tween-80) was 331 % of control, the T/C (dose: 224.0 mg/kg/injection, schedule: Q01DX001 (ip), vehicle: saline with Tween-80) was 331 % of control and the T/C (dose: 335.0 mg/kg/injection, schedule: Q01DX001 (ip), vehicle: saline with Tween-80) was 192 % of control.
With Cl/C=C/CSc1ccccc1 the T/C [22] was 100 % of control, the T/C [23] was 103 % of control and the T/C [24] was 100 % of control.
CSc1ccc([N+](=O)[O-])cc1 was tested, and the T/C [14] was 104 % of control and the T/C [16] was 100 % of control.
With COc1cc2c(cc1OC)C(CCCCCCCC1NCCc3cc(OC)c(OC)cc31)NCC2 (stereo unspecified) the T/C (dose: 0.25 mg/kg/injection, schedule: Q01DX015 (ip), vehicle: saline) was 97 % of control, the T/C (dose: 0.5 mg/kg/injection, schedule: Q01DX015 (ip), vehicle: saline) was 100 % of control and the T/C (dose: 1.0 mg/kg/injection, schedule: Q01DX015 (ip), vehicle: saline) was 103 % of control. The T/C (dose: 2.0 mg/kg/injection, schedule: Q01DX015 (ip), vehicle: saline) was 102 % of control, the T/C (dose: 4.0 mg/kg/injection, schedule: Q01DX015 (ip), vehicle: saline) was 106 % of control and the T/C (dose: 8.0 mg/kg/injection, schedule: Q01DX015 (ip), vehicle: carboxymethylcellulose (CMC)) was 91 % of control. The T/C (dose: 16.0 mg/kg/injection, schedule: Q01DX015 (ip), vehicle: carboxymethylcellulose (CMC)) was 91 % of control, the T/C (dose: 50.0 mg/kg/injection, schedule: Q01DX001 (ip), vehicle: saline) was 101 % of control and the T/C [22] was 100 % of control.
COc1cccc(/C(C#N)=C\O)c1 was tested, and the T/C [8] was 104 % of control and the T/C [9] was 96 % of control.
In the case of Cc1cc(Cl)ccc1NS(=O)(=O)c1ccccc1, the T/C [13] is reported as 107 % of control, the T/C [14] is reported as 98 % of control and the T/C [15] is reported as 98 % of control. The T/C [16] was 103 % of control, the T/C [17] was 96 % of control and the T/C [18] was 97 % of control.
With Cc1[nH]c(=O)nc(Br)c1[N+](=O)[O-] the T/C [25] was 101 % of control, the T/C [13] was 107 % of control and the T/C [14] was 97 % of control. For the same compound, the T/C [15] was 98 % of control and the T/C [16] was 95 % of control.
For O=C1CC2CC(=O)CC2C1 (stereo unspecified), the T/C (dose: 100.0 mg/kg/injection, schedule: Q01DX001 (ip), vehicle: Klucel (hydroxypropylcellulose) (HPC)) was 104 % of control, the T/C [19] was 105 % of control and the T/C (dose: 200.0 mg/kg/injection, schedule: Q01DX001 (ip), vehicle: Klucel (hydroxypropylcellulose) (HPC)) was 97 % of control. For the same compound, the T/C [1] was 90 % of control, the T/C [20] was 105 % of control and the T/C (dose: 400.0 mg/kg/injection, schedule: Q01DX001 (ip), vehicle: Klucel (hydroxypropylcellulose) (HPC)) was 98 % of control. The T/C [21] was 94 % of control.
Cn1cc(/C=C\[N+](=O)[O-])c2ccccc21 was tested, and the T/C [22] was 98 % of control, the T/C [23] was 98 % of control and the T/C [24] was 98 % of control.
In the case of O=C(O)c1c(Cl)cccc1Cl, the T/C [11] is reported as 92 % of control, the T/C [12] is reported as 93 % of control and the T/C [2] is reported as 93 % of control and 87 % of control. The T/C [3] was 98 % of control, the T/C [5] was 95 % of control and the T/C [7] was 95 % of control.
For CSC(=N)c1cccc(OCCOc2ccccc2)c1, the T/C [25] was 96 % of control, the T/C [13] was 102 % of control and the T/C [15] was 96 % of control.
